{"source": "patent US20250179022A1", "about": "“COMPOUND USED AS TYK2 INHIBITOR, PREPARATION METHOD THEREFOR, AND PHARMACEUTICAL USE THEREOF” (SHANGHAI ZHIGEN PHARMACEUTICAL & TECHNOLOGY CO. LTD., priority 2022, published 2025)", "key": {"[1]": {"tested_on": "IFN-α-induced STAT phosphorylation", "assay": "IFN-α-induced STAT phosphorylation in human whole blood", "format": "cell-based", "settings": "human whole blood, 20 ng/ml IFN-α, pSTAT5 in CD3-positive cells; read-out: IC50, IFN-α inflammatory pathway (IFN-α-induced STAT phosphorylation)", "text": "The cytokine receptor attached to TYK2 mediates the signaling of type 1 interferon (IFN-α), which has been identified as the most important inflammatory factor of the autoimmune system. Human whole blood is induced with IFN-α, and TYK2 from lymphocytes in whole blood triggered STAT phosphorylation, which mediated subsequent inflammatory signaling. Therefore, TYK2 inhibitors have an inhibitory effect on IFN-α signaling, and the stronger the TYK2 inhibitory activity, the lower the level of STAT phosphorylation, and the stronger the corresponding anti-inflammatory effect.\nIn this experiment, the ability of the compounds to inhibit IFN-α-induced STAT phosphorylation in human whole blood were tested, and the IC50 values were calculated. The anti-inflammatory activity of the compounds was evaluated at the tissue level and evaluation of the inhibitory activity of compounds on the IFN-α inflammatory pathway based on the IC50 value.\nThe tested compound, powder and stored at room temperature, prepared into 10 mM stock solution with DMSO and stored at −80° C. in the refrigerator.\n1× Fix/Lysis solution preparation: 5× Fix/Lysis and ddH2O were diluted according to 1:4 and preheated in 37° C. incubator, waiting for use.\nFlow cytometric staining buffer preparation: 1 g of bovine serum albumin (BSA) and 1 mL of EDTA (0.5 M) solution were added to 500 mL of phosphate buffer solution (PBS) and stored at 4° C. in the refrigerator.\nCompound dilution solution: 0.5 g of bovine serum albumin (BSA) was added to 500 mL of phosphate buffer solution (PBS), and stored at 4° C. in the refrigerator.\n50 μg/mL IFN-alpha was diluted to 400 ng/mL with Compound Diluent and set aside.\n67.5 μL of human whole blood was added to a 96-well plate using a 300 μL electric volley gun. 3.5 μL of prepared test compound was added, mixed well and placed in the cell culture incubator. After 60 min incubation, 400 ng/mL IFN-α (Biolegend 592702, final concentration 20 ng/ml) was added. The obtained was mixed well and placed in the cell culture incubator to continue incubation for 15 min.\nAfter cytokine stimulation, 5 ul of PE-CD3 (BD 555333) antibody was added to each well, mixed and incubation was continued at 4° C. in the refrigerator. At the end, whole blood was transferred to a 96-well deep-well plate using a volley gun, pre-warmed 1× Fix/Lysis solution was added, and cells were lysed and fixed for 12 minutes at 37° C. in an incubator. After being washed, 400 μL of Perm III solution was added, vortexed and incubated on ice for 30 minutes. Cells were then stained by 100 μL of APC-pSTAT5 (1:100) antibody for 50 min at room temperature. This was followed by flow-through instrumentation. The expression of pSTAT5 was quantified by median fluorescence intensity after gating the CD3-positive signaling cluster."}, "[2]": {"assay": "In vivo pharmacokinetic experiment in rats (oral)", "set-up": "species or system SD rats", "settings": "5 mg/kg", "procedure": "Experimental method: Healthy male SD rats were randomly grouped into 3 rats in each group and given the test compound orally. The rats were fasted for 12 h before the gavage experiment, and drank water freely, and were fed uniformly for 4 h after the administration of the compounds. Before (0 h) and 0.25, 0.5, 1.0, 2.0, 4.0, 6.0, 8.0 and 24 h after the administration of the test compounds, 0.2 mL of blood was collected from the jugular vein at the above set time points and placed in EDTA-K2 tubes, and the whole blood was collected and stored temporarily in an ice-water bath, and then centrifuged at 11,000 rpm for 5 min within 30 min, the plasma was separated, and frozen at −70° C. in a refrigerator for testing."}, "JAK3": {"biological_target": "T1, JAK3 (Homo sapiens, UniProt P52333, cells depend on it, form not given)", "T1 construct": "fused on or other part: N-terminal part of TEL (ETV6) as oligomerising partner; P41212 (Transcription factor ETV6)", "T1 sequence (P52333 822-1111 limits assumed, change not shown)": "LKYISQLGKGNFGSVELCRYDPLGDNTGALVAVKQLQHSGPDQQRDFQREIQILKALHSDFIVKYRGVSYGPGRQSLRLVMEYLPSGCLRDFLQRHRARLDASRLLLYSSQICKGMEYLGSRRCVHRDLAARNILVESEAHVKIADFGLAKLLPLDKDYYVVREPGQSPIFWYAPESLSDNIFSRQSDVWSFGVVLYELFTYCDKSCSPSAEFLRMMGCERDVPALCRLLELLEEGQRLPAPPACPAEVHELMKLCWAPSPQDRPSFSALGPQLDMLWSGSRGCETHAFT", "assay": "JAK family kinase selectivity assay, Ba/F3-TEL-JAK3 cell proliferation", "format": "cell-based", "settings": "read-out: Ba/F3 Cell IC50 JAK3; Ba/F3-TEL-JAK3, 72 h", "text": "(§1) There are four kinases in the JAK family, respectively TYK2, JAK1, JAK2 and JAK3. JAK family kinase genes were introduced into the wild-type murine B lymphocytes (BaF3), and four BaF3 engineered cell lines were constructed respectively (Ba/F3-FL-TYK2-E957D, Ba/F3-TEL-JAK1, Ba/F3-TEL-JAK2, Ba/F3-TEL-JAK3). The growth and proliferation of these engineered cell lines were not dependent on IL-3, but on exogenously transferred JAK family kinases.\n(§2) In this experiment, the inhibitory effects of the compounds on the proliferation of four cell types, Ba/F3-FL-TYK2-E957D, Ba/F3-TEL-JAK1, Ba/F3-TEL-JAK2, and Ba/F3-TEL-JAK3 were tested, and apoptosis was detected, and the IC50 values were calculated. The inhibitory activities of the compounds against TYK2, JAK1, JAK2, and JAK3 kinases were evaluated based on the IC50 value, thus assessing the JAK family kinase selectivity of the compounds.\n(§3) The tested compounds, powder and stored at room temperature, were prepared into 10 mM stock solution with DMSO and stored at −20° C. away from light for use.\n(§4) Compounds were formulated into dilute solutions which was 1000 times of the final concentration. The compound was prepared into 20-times of final concentration by diluting the compound with culture medium. 2 ul of 1000-times compound was added per well to 98 ul of culture medium.\n(§5) Cells (provided by Sundia Pharmaceutical Technology (Shanghai) Co., Ltd.) were resuspended and counted using an automated cell counter. The cell suspension was diluted to the desired density based on BaF3 seeding density of 2000 cells per well. Each well was plated with 95 ul of cells and incubated at 37° C. for stable equilibrium. […]\n(§6) The cell plate was equilibrated to room temperature. […] Detected with SpectraMax Paradigm.\n(§7) • (1) IC50 was calculated using GraphPad Prism 5. • (2) % Inh=(Max signal-Compound signal)/(Max signal-Min signal)×100. • (3) Max signal was the positive control well with only the same volume of DMSO as the compound. • (4) Min signal was the negative control well with only the culture medium."}, "JAK2": {"biological_target": "T2, JAK2 (Homo sapiens, UniProt O60674, cells depend on it, form not given)", "T2 construct": "fused on or other part: N-terminal part of TEL (ETV6) as oligomerising partner; it is the second protein of the fusion and part of the key; P41212 (Transcription factor ETV6)", "T2 sequence (O60674 849-1132 limits assumed, change not shown)": "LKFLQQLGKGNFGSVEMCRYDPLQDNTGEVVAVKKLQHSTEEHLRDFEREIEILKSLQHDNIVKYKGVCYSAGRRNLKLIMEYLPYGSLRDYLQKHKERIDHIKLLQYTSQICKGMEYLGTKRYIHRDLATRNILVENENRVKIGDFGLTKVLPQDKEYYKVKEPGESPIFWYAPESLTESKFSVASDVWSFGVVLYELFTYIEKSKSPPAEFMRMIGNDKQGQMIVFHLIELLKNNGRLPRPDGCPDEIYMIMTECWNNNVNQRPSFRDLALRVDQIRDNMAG", "assay": "JAK family kinase selectivity assay, Ba/F3-TEL-JAK2 cell proliferation", "format": "cell-based", "settings": "read-out: Ba/F3 Cell IC50 JAK2; Ba/F3-TEL-JAK2, 72 h", "text": "as §1, §2, §3, §4, §5, §6, §7"}, "[3]": {"assay": "Solubility in water (at pH=7)", "format": "physicochemical", "text": "Test Example 6: Solubility of the Compounds of the Invention in Water (at pH=7)"}, "[4]": {"settings": "dogs, 2 mg/kg, literature values; cited from earlier work"}, "TYK2": {"biological_target": "T3, TYK2 (Homo sapiens, UniProt P29597, E957D)", "T3 construct": "host or cells: Ba/F3 (murine B lymphocytes)", "T3 sequence (P29597 whole entry E957D)": "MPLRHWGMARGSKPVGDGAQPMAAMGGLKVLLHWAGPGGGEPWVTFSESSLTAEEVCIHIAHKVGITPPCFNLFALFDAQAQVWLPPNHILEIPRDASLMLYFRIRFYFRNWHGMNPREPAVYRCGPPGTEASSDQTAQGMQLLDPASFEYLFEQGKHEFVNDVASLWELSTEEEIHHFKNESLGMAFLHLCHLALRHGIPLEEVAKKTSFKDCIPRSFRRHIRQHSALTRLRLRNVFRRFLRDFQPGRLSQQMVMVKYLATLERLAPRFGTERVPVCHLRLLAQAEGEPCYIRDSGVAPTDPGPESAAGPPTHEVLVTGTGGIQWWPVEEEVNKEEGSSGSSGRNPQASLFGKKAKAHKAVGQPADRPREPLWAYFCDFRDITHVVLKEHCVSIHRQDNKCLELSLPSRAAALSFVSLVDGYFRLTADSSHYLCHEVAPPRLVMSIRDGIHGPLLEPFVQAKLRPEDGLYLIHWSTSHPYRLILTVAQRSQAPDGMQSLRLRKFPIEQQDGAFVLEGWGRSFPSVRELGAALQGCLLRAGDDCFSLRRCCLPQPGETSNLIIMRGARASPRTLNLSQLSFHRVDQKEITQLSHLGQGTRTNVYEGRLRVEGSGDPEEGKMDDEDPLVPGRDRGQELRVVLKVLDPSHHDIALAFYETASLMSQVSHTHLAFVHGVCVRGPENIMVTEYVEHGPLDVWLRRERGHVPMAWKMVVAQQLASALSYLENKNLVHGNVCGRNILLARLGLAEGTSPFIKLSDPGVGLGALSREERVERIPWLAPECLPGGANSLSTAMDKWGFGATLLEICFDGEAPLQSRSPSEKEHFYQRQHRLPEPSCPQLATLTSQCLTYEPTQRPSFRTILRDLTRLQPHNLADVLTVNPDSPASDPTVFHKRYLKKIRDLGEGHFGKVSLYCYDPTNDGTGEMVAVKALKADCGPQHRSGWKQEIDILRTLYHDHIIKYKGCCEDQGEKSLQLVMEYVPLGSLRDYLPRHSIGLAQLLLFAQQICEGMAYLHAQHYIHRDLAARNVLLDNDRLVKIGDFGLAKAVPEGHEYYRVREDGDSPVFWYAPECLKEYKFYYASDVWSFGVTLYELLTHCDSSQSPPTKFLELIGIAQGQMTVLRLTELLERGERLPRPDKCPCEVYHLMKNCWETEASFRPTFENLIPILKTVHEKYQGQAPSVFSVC", "assay": "TYK2 kinase activity inhibition assay (Ba/F3-FL-TYK2-E957D cell proliferation, CellTiter-Glo)", "format": "cell-based", "settings": "72 h", "procedure": "The TYK2 kinase gene was introduced into wild-type murine-derived B lymphocytes (BaF3) to construct the Ba/F3-FL-TYK2-E957D stable cell line.\nIn this experiment, the inhibitory effect of the compounds on the proliferation of Ba/F3-FL-TYK2-E957D cells were tested, apoptosis was detected, and the IC50 value was calculated. The inhibitory activity of the compounds against TYK2 kinase was evaluated based on the IC50 value.\nas §3\nCompounds were prepared into dilute solutions which was 1000 times of the final concentration. The compound was prepared into 20-times of the final concentration by diluting the compound with culture medium. 2 ul of 1000-times compound was added to per well to 98 ul of culture medium.\nCells (provided by Sundia Pharmaceutical Technology (Shanghai) Co., Ltd.) were resuspended and counted using an automated cell counter. The cell suspension was diluted to the desired density based on BaF3 seeding density of 2000 cells per well. Each well was plated with 95 ul of cells and incubated at 37° C. for stable equilibrium. 5 ul of 20-times compound was added to each well, with the wells to which the same volume of DMSO was added as a control.\nThe cell plate was equilibrated to room temperature. 40 ul CellTiter-Glo® Reagent was added to each well, shaken for 2 minutes and allowed to stand for 10 minutes. Detected with SpectraMax Paradigm.\n• (1) IC50 was calculated using GraphPad Prism 5. • (2) % Inh=(Max signal−Compound signal)/(Max signal−Min signal)×100. • (3) Max signal was the positive control well with only the same volume of DMSO as the compound. • (4) Min signal was the negative control well with only the culture medium."}}, "note": "Read-outs that look alike come from different tables or passages of the source.", "data": [{"compound": "CN=S(C)(=O)c1cc(C)c(N)nc1Nc1cc(NC(=O)C2CC2)nnc1C(=O)NC", "note": "(stereo not shown) [Example 26, 4-((6-amino-3-(N,S-dimethylsulfoximino)-5-methylpyridin-2-yl)amino)-6-(cyclopropylcarboxamido)-N-methylpyridazine-3-carboxamide]", "values": [{"measurement": "IC50", "setting": "[1]", "result": 9.4, "unit": "nM"}]}, {"compound": "[2H]C([2H])([2H])NC(=O)c1nnc(NC(=O)C2CC2)cc1Nc1cccc(-c2ncn(C)n2)c1OC", "note": "[BMS-986165, Deucravacitinib, reference compound]", "values": [{"measurement": "AUC", "setting": "[2]", "result": 2804, "unit": "ngh/mL"}, {"measurement": "F", "setting": "[2]", "result": 28.5, "unit": "%"}, {"measurement": "Cmax", "setting": "[2]; male, SD, rat, plasma", "result": 229, "unit": "ng/mL"}, {"measurement": "MRT", "setting": "[2]; male, SD, rat, plasma", "result": 6.43, "unit": "h"}, {"measurement": "half-life", "setting": "[2]; male, SD, rat, plasma", "result": 3.68, "unit": "h"}, {"measurement": "GI50", "setting": "JAK3", "result": "> 1000", "unit": "nM"}, {"measurement": "GI50", "setting": "JAK2", "result": "> 1000", "unit": "nM"}, {"measurement": "Solubility", "setting": "[3]; pH 7, water, read-out: Solubility", "result": 8.2, "unit": "µg/mL"}, {"measurement": "AUC", "setting": "[4]", "result": 1312, "unit": "ngh/mL"}, {"measurement": "Cmax", "setting": "[4]", "result": 222, "unit": "ng/mL"}, {"measurement": "F", "setting": "[4]", "result": 35.5, "unit": "%"}, {"measurement": "T1/2", "setting": "[4]", "result": 6.21, "unit": "h"}, {"measurement": "IC50", "setting": "[1]", "result": 23.2, "unit": "nM"}]}, {"compound": "[2H]C([2H])([2H])NC(=O)c1nnc(NC(=O)C2CC2)cc1Nc1nc(N)c(Cl)cc1[S@@](C)(=O)=NC", "note": "[Example 38]", "values": [{"measurement": "Solubility", "setting": "[3]", "result": 47, "unit": "µg/mL"}]}, {"compound": "CN=S(C)(=O)c1cc(Br)c(N)nc1Nc1cc(NC(=O)C2CC2)nnc1C(=O)NC", "note": "(stereo not shown) [Example 24, 4-((6-amino-5-bromo-3-(N,S-dimethylsulfoximino)pyridin-2-yl)amino)-6-(cyclopropylcarboxamido)-N-methylpyridazine-3-carboxamide]", "values": [{"measurement": "IC50", "setting": "TYK2", "result": 1.3, "unit": "nM"}, {"measurement": "IC50", "setting": "[1]", "result": 7.5, "unit": "nM"}]}, {"compound": "CN=S(C)(=O)c1cc(Cl)c(N)nc1Nc1cc(NC(=O)C2CC2)nnc1C(=O)NC", "note": "(stereo not shown) [Example 23]", "values": [{"measurement": "IC50", "setting": "TYK2", "result": 2, "unit": "nM"}, {"measurement": "IC50", "setting": "[1]", "result": 8.1, "unit": "nM"}]}, {"compound": "CN=S(C)(=O)c1cc(F)c(N)nc1Nc1cc(NC(=O)C2CC2)nnc1C(=O)NC", "note": "(stereo not shown) [Example 22, 4-((6-amino-3-(N,S-dimethylsulfoximino)-5-fluoropyridin-2-yl)amino)-6-(cyclopropylcarboxamido)-N-methylpyridazine-3-carboxamide]", "values": [{"measurement": "IC50", "setting": "[1]", "result": 13, "unit": "nM"}]}, {"compound": "CN=S(C)(=O)c1cc2c(Cl)c[nH]c2nc1Nc1cc(NC(=O)C2CC2)nnc1C(=O)NC", "note": "(stereo not shown) [Example 32, 4-((3-chloro-5-(N,S-dimethylsulfoximino)-1H-pyrrolo[2,3-b]pyridin-6-yl)amino)-6-(cyclopropylamido)-N-methylpyridazine-3-carboxamide]", "values": [{"measurement": "IC50", "setting": "TYK2", "result": 0.62, "unit": "nM"}, {"measurement": "IC50", "setting": "[1]", "result": 16.1, "unit": "nM"}]}]}
